Results taken from patent US7091199B1, “Thienoisoxazole phenoxy unsubstituted ethyl and propyl derivatives useful as d4 antagonists” (Aventis Pharmaceuticals Inc., priority 1999, dated 2006).
Counter-ions that a name gives are not always drawn. Like-named read-outs stand apart in the source and are kept apart here.

Key:
[1] = test system: CD-1 or C57 male mice (MK-801 induced stereotypy); assay: MK-801 Stereotypy in Mice; type: in vivo; settings: for inhibition in vivo at 20 mg/kg: read-out: Antag. of MK 801 Stereotypy % Inhib. @ 20 mg/kg
Experimental: Mk-801 dose-dependently induces characteristic stereotypy marked by locomotion and falling behavior. This MK-801 induced behavior can be antagonized by novel neuroleptic agents. This assay can also assess time course effects following drug administration.
CD-1 or C57 male mice are individually placed in activity boxes (8 mice/drug) and allowed to acclimate for 60 minutes. The mice are then administered test compounds either i.p., s.c., or p.o., at 15, 30, or 60 minutes prior to MK-801 (0.2 mg/kg) administration. Mice are observed for the presence of locomotion and falling behaviors 15 minutes following MK-801. For the duration of action studies the test compounds are administered i.p., s.c., or p.o., at 30, 60, 120, 180, and 240 minutes prior to MK-801 administration.

[2] = target: T1, human D4 receptor (D4.2 sub-type) (Homo sapiens, UniProt P21917, DEL271-302); assay: D4 receptor binding assay (3H-spiperone displacement); settings: for Ki: 3H-spiperone 0.25 nM, HEK cell membranes, human D4.2, read-out: D4 RBA Ki; for inhibition at 1 µM: read-out: D4 RBA % Inhibition (@ 1 μM)
T1 sequence (P21917 with tags, fused parts or gaps DEL271-302): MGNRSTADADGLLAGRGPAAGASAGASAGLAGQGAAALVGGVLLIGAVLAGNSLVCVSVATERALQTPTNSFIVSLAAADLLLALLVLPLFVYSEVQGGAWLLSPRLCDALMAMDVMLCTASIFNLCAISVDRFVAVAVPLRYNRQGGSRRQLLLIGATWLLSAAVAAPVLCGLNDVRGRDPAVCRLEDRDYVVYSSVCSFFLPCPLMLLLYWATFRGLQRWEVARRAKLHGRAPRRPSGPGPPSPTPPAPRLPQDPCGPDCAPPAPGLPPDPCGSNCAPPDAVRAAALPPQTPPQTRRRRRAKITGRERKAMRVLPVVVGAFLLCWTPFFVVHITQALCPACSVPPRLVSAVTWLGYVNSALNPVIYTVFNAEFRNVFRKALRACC
Experimental: D4 receptor-binding affinities of the compounds were evaluated according to their ability to reduce binding of ^3H-spiperone as compared to the reference compound clozapine. The potency of the test compound to reduce ^3H-spiperone binding directly correlated to its binding affinity for the receptor.
[…] (human embryonic kidney) cells stably transfected with human D4 receptor (D4.2 sub-type) were grown in NUNC cell factories for 5 days (75% confluency) without a media change and removed with versene (approximately 19 mg of cells per cell factory tray). The cells were then centrifuged in a Sorval centrifuge for 10 min, 5000 rpm (GS3 rotor) and the pellets quickly frozen in liquid nitrogen and stored at −80° C. until used in binding assay. When used in the assay, cells were thawed on ice for 20 min and then 10 mL of incubation buffer (50 mM Tris, 1 mM EDTA, 4 mM MgCl2, 5 mM KCl, 1.5 mM CaCl2, 120 mM NaCl, pH 7.4) was added. The cells were then vortexed to resuspend pellet and homogenized with a Kinematica, CH-6010 Kriens-LU, homogenizer for 15 seconds at setting 7. Concentration of receptor protein was determined using the Pierce BCA assay.
The incubation was started by the addition of 100 μl (50 μg protein) membrane homogenate to a solution of 300 μl incubation buffer and 100 μl (0.25 nM final conc.) ^3H-spiperone (90 Ci/mmol, Amersham, diluted in borosilicate glass vial) in 96-well polypropylene plates (1 mL per well). The plates were vortexed and incubated at room temperature for 90 minutes. The binding reaction was stopped by filtering using a Packard Harvester. The samples were filtered under vacuum over glass fibre filter plates (Whatman GF/B) presoaked for 2 hours in 0.3% polyethylenimine (PEI) in 50 mM Tris buffer (pH 7.4). The filters were then washed 6 times with 7 mL ice cold 50 mM Tris buffer (pH 7.4). The filter plates were dried overnight and 35 μl of Microscint-O (Packard) was added. The plates were sealed and counted in the Packard Top Count (3 minutes per well).
The incubation was started by the addition of 100 μl (50 μg protein) membrane homogenate to a solution of 200 μl incubation buffer, 100 μl ^3H-spiperone (90 Ci/mmol, Amersham, diluted in borosilicate glass vial to 0.25 nM final conc.) and 100 μl (30 μM final conc.) of fresh dopamine (Research Biochemicals Inc., light protected and dissolved in incubation buffer) in 96-well polypropylene plates (1 mL per well). The plates were vortexed and incubated at room temperature for 90 minutes at which time the binding reaction was stopped by filtering. The filters were washed and counted using the same procedure as in the total binding assay described above to give the non-specific binding value (NSB).
The incubation was started by the addition, in 96-well polypropylene plates (1 mL per well), of 100 μl (50 μg protein) membrane homogenate to a solution of 200 μl incubation buffer, 100 μl (0.25 nM final conc.) ^3H-spiperone (90 Ci/mmol, Amersham, diluted in borosilicate glass vial) and 100 μl of test compound that was prepared from 1 mM stock dissolved in DMSO and stored at −20° C. in polypropylene cryogenic storage vials until dilution in incubation buffer in 96-well polypropylene plates. The plates were vortexed and incubated at room temperature for 90 minutes at which time the binding reaction was stopped by filtering. The filters were washed and counted using the same procedure as in the total binding assay described above to give the displacement binding value (BD).
The test compounds were initially assayed at 1 and 0.1 μM and then at a range of concentrations chosen such that the middle dose would cause about 50% inhibition of ^3H-spiperone binding. Specific binding in the absence of test compound (B0) was the difference of total binding (BT) minus non-specific binding (NSB) and similarly specific binding (in the presence of test compound) (B) was the difference of displacement binding (BD) minus non-specific binding (NSB). […]

[3] = @ 1 μM test compound, 3H-spiperone binding

Row | SMILES | Ki [2] [µM] | inhibition at 1 µM [2, 3] [%] | also measured
1 | Cc1ccc(CNCCOc2cccc(-c3noc4ccsc34)c2)cc1 [Compound 20, (4-methyl-benzyl)-[2-(3-thieno[2,3-d]isoxazol-3-yl-phenoxy)-ethyl]-amine] | 0.00527 |  | inhibition in vivo at 20 mg/kg ([1]; Mus musculus, po, 20 mg/kg): 37.5%
2 | Fc1cccc(CNCCOc2cccc(-c3noc4ccsc34)c2)c1.O=C(O)/C=C\C(=O)O [Compound 32, (3-fluoro-benzyl)-[2-(3-thieno[2,3-d]isoxazol-3-yl-phenoxy)-ethyl]-amine maleate] | 0.0105 |  | Antag. of MK 801 Stereotypy % Inhib. @ 20 mg/kg ([1]; PO, 20 mg/kg): 62.5%
3 | Fc1cccc(CNCCOc2cccc(-c3noc4ccsc34)c2)c1 [Compound 19, (3-fluoro-benzyl)-[2-(3-thieno[2,3-d]isoxazol-3-yl-phenoxy)-ethyl]-amine] | 0.015 |  | inhibition in vivo at 20 mg/kg ([1]; Mus musculus, po, 20 mg/kg): 75%
4 | c1cnc(N2CCN(CCCOc3cccc(-c4noc5ccsc45)c3)CC2)nc1 [Compound 13, 3-{3-[3-(4-pyrimidin-2-yl-piperazin-1-yl)-propoxy]-phenyl}-thieno[2,3-d]isoxazole] | 0.055 |  | inhibition in vivo at 20 mg/kg ([1]; Mus musculus, ip, 20 mg/kg): 37.5%
5 | CC1CCN(CCOc2cccc(-c3noc4ccsc34)c2)CC1 [Compound 59, 3-{3-[2-(4-methyl-piperidin-1-yl)-ethoxy]-phenyl}-thieno[2,3-d]isoxazole] |  | 90 | 
6 | c1cc(OCCCNCc2ccsc2)cc(-c2noc3ccsc23)c1 [Compound 7, [3-(3-thieno[2,3-d]isoxazol-3-yl-phenoxy)-propyl]-thiophen-3-yl-methylamine] | 0.018 |  | inhibition in vivo at 20 mg/kg ([1]; Mus musculus, po, 20 mg/kg): 75%
7 | Fc1ccccc1N1CCN(CCCOc2cccc(-c3noc4ccsc34)c2)CC1 [Compound 12, 3-(3-{3-[4-(2-fluoro-phenyl)-piperazin-1-yl]-propoxy}-phenyl)-thieno[2,3-d]isoxazole] |  | 94 | 
8 | c1cc(OCCN2CCCC2)cc(-c2noc3ccsc23)c1 [Compound 61, 3-[3-(2-pyrrolidin-1-yl-ethoxy)-phenyl]-thieno[2,3-d]isoxazole] |  | 41 | 
9 | c1cc(OCCCN2CCc3ccccc3C2)cc(-c2noc3ccsc23)c1 [Compound 45, 2-[3-(3-thieno[2,3-d]isoxazol-3-yl-phenoxy)-propyl]-1,2,3,4-tetrahydroisoquinoline] |  | 52 | 
10 | Fc1ccccc1CNCCOc1cccc(-c2noc3ccsc23)c1 [Compound 34, (2-fluoro-benzyl)-[2-(3-thieno[2,3-d]isoxazol-3-yl-phenoxy)-ethyl]-amine] |  | 93 | 
11 | Clc1ccccc1CNCCCOc1cccc(-c2noc3ccsc23)c1 [Compound 40, (2-chloro-benzyl)-[3-(3-thieno[2,3-d]isoxazol-3-yl-phenoxy)-propyl]-amine] |  | 89 | 
12 | Fc1ccc(CNCCCOc2cccc(-c3noc4ccsc34)c2)cc1 [Compound 3, (4-fluoro-benzyl)-[3-(3-thieno[2,3-d]isoxazol-3-yl-phenoxy)-propyl]-amine] | 0.017 |  | inhibition in vivo at 20 mg/kg ([1]; Mus musculus, po, 20 mg/kg): 37.5%
13 | c1ccc(N2CCN(CCCOc3cccc(-c4noc5ccsc45)c3)CC2)cc1 [Compound 10, 3-{3-[3-(4-phenyl-piperazin-1-yl)-propoxy]-phenyl}-thieno[2,3-d]isoxazole] |  | 95 | 
14 | c1ccc(C2CCN(CCOc3cccc(-c4noc5ccsc45)c3)CC2)cc1 [Compound 30, 3-{3-[2-(4-phenyl-piperidin-1-yl)-ethoxy]-phenyl}-thieno[2,3-d]isoxazole hydrochloride] |  |  | inhibition at 1 µM [2]: 68%
15 | c1cc(OCCCNC2CCc3ccccc32)cc(-c2noc3ccsc23)c1 (stereo not shown) [Compound 43] |  | 94 | 
16 | Fc1ccc(CNCCOc2cccc(-c3noc4ccsc34)c2)cc1 [Compound 17, (4-fluoro-benzyl)-[2-(3-thieno[2,3-d]isoxazol-3-yl-phenoxy)-ethyl]-amine] | 0.012 |  | ED50 ([1]; Mus musculus, PO, MK-801 stereotypy, read-out: In Vivo ED50): 14.1 mg/kg; inhibition in vivo at 20 mg/kg ([1]; Mus musculus, po, 20 mg/kg): 62.5%
17 | Fc1cccc(F)c1CNCCCOc1cccc(-c2noc3ccsc23)c1 [Compound 56, (2,6-difluoro-benzyl)-[3-(3-thieno[2,3-d]isoxazol-3-yl-phenoxy)-propyl]-amine] |  | 64 | 
18 | c1cc(OCCNC23CC4CC(CC(C4)C2)C3)cc(-c2noc3ccsc23)c1 [Compound 47, adamantan-1-yl-[2-(3-thieno[2,3-d]isoxazol-3-yl-phenoxy)-ethyl]-amine] | 0.023 |  | 
19 | OC(CNCCCOc1cccc(-c2noc3ccsc23)c1)c1ccccc1 (stereo not shown) [Compound 9, 1-phenyl-2-[3-(3-thieno[2,3-d]isoxazol-3-yl-phenoxy)-propylamino]-ethanol] |  | 73 | 
20 | c1cc(OCCNCc2cccs2)cc(-c2noc3ccsc23)c1 [Compound 24, [2-(3-thieno[2,3-d]isoxazol-3-yl-phenoxy)-ethyl]-thiophen-2-ylmethyl-amine] |  | 95 | 
21 | Fc1ccc(CNCCOc2cccc(-c3noc4ccsc34)c2)cc1F [Compound 37, (3,4-difluoro-benzyl)-[2-(3-thieno[2,3-d]isoxazol-3-yl-phenoxy)-ethyl]-amine] | 0.032 |  | 
22 | c1ccc(CNCCOc2cccc(-c3noc4ccsc34)c2)cc1 [Compound 16, benzyl-[2-(3-thieno[2,3-d]isoxazol-3-yl-phenoxy)-ethyl]-amine] | 0.0076 |  | 
23 | Fc1ccc(CNCCOc2cccc(-c3noc4ccsc34)c2)c(F)c1 [Compound 49, (2,4-difluoro-benzyl)-[2-(3-thieno[2,3-d]isoxazol-3-yl-phenoxy)-ethyl]-amine] |  | 95 | 
24 | c1cc(OCCNCc2ccsc2)cc(-c2noc3ccsc23)c1 [Compound 33, [2-(3-thieno[2,3-d]isoxazol-3-yl-phenoxy)-ethyl]-thiophen-3-ylmethylamine hydrochloride] | 0.015 |  | 
25 | COc1cccc(CNCCCOc2cccc(-c3noc4ccsc34)c2)c1 [Compound 41, (3-methoxy-benzyl)-[3-(3-thieno[2,3-d]isoxazol-3-yl-phenoxy)-propyl]-amine] | 0.044 |  | 
26 | c1cc(OCCCN2CCCCC2)cc(-c2noc3ccsc23)c1 [Compound 54, 3-[3-(3-piperidin-1-yl-propoxy)-phenyl]-thieno[2,3-d]isoxazole] |  | 94 | 
